Results taken from PMC3402509 (Investigational New Drugs, 2011).
Read-outs that look alike come from different tables or passages of the source.

Tests used:
[1] = Dasatinib pharmacokinetic studies in plasma; type: in vivo, patients; details: for Cmax: Cmax Geomean (%CV)
[2] = tested on: SFK PY-416 (P-SFK); test: P-SFK peripheral blood mononuclear cell; type: in vivo, patients; details: for P-SFK levels in PBMCs compared to same day pre-dasatinib dosing levels: day 15 (with cetuximab)
[3] = tested on: NSCLC; details: dasatinib monotherapy, phase II; cited from earlier work

SMILES: Cc1nc(Nc2ncc(C(=O)Nc3c(C)cccc3Cl)s2)cc(N2CCN(CCO)CC2)n1 [dasatinib, N-(2-chloro-6-methyl-phenyl)-2-(6-(4-(2-hydroxyethyl)-piperazin-1-yl)-2-methylpyrimidin-4-ylamino)thiazole-5-carboxamide]
- T-HALF Mean (SD) ([1]; 100 mg oral, Day 0 (alone), N=3): 6.8 (0.1) h
- T-HALF Mean (SD) ([1]; 100 mg oral, Day 15 (with cetuximab), N=3): 6.4 (0.1) h
- T-HALF Mean (SD) ([1]; 150 mg oral, Day 0 (alone), N=18): 5.2 (1.0) h
- T-HALF Mean (SD) ([1]; 200 mg oral, Day 0 (alone), N=3): 5.1 (0.6) h
- half-life ([1]; human, plasma, po): 5 to 6 h
- Cmax ([1]; human, plasma, po, 100 mg, 100 mg oral, Day 0 (alone), N=3): 101 ng/mL
- Tmax ([1]; human, plasma, po, 100 mg, Tmax Med (Min, Max), 100 mg oral, Day 0 (alone), N=3): 1 h
- Cmax ([1]; human, plasma, po, 150 mg, 150 mg oral, Day 0 (alone), N=18): 144 ng/mL
- Tmax ([1]; human, plasma, po, 150 mg, Tmax Med (Min, Max), 150 mg oral, Day 0 (alone), N=18): 1.5 h
- Cmax ([1]; human, plasma, po, 200 mg, 200 mg oral, Day 0 (alone), N=3): 415 ng/mL
- Tmax ([1]; human, plasma, po, 200 mg, Tmax Med (Min, Max), 200 mg oral, Day 0 (alone), N=3): 1 h
- Tmax ([1]; human, plasma, po, Tmax, text summary over dose levels): 1 to 2 h
- PK parameters (AUC and T-HALF) given alone (day 0) versus in combination with cetuximab (day 15) ([1]; in vivo): comparable
- P-SFK levels in PBMCs compared to baseline ([2]; day 0, 4 hours following dasatinib dosing): tended to be reduced
- P-SFK levels in PBMCs compared to baseline ([2]; day 0, 8 hours following dasatinib dosing): significantly reduced
- P-SFK levels in PBMCs compared to baseline ([2]; day 0, 24 hours following dasatinib dosing): did not differ from baseline levels
- P-SFK levels in PBMCs compared to same day pre-dasatinib dosing levels ([2]; 8 hours, P=0.03): significantly decreased
- P-SFK levels in PBMCs compared to same day pre-dasatinib dosing levels ([2]; 24 hours, P=0.18): did not differ from pre-dasatinib dosing levels
- DLT (patients) (dose level 1, dasatinib 100 mg once daily plus weekly cetuximab, 3 (3) patients (evaluable)): None
- DLT (patients) (dose level 2, dasatinib 150 mg once daily plus weekly cetuximab, 19 (14) patients (evaluable)): 1
- DLT (patients) (dose level 2, dasatinib 150 mg once daily plus weekly cetuximab, 19 (14) patients (evaluable), listed as Dasatinib): 1 (Headache)
- DLT (patients) (dose level 3, dasatinib 200 mg once daily plus weekly cetuximab, 3 (2) patients (evaluable)): 2
- patients with either a partial response or SD [3]: 43%
